Source: patent US6239171A, “Tocotrienols and tocotrienol-like compounds and methods for their use” (Lipogenics, Inc., priority 1998, dated 2001)

How the values were obtained:
HMG-CoA reductase = target: T1, HMG-CoA reductase (Sus scrofa, UniProt Q1W675); experiment: Hepatic HMG-CoA reductase activity in hypercholesterolemic swine; assay type: in vivo; settings: control diet + 50 ppm
T1 construct: The hepatic enzymatic activity of the HMG-CoA reductase decreased approximately 30%; from tissue; host or cells: pig liver, microsomes
T1 sequence (Q1W675 1-885): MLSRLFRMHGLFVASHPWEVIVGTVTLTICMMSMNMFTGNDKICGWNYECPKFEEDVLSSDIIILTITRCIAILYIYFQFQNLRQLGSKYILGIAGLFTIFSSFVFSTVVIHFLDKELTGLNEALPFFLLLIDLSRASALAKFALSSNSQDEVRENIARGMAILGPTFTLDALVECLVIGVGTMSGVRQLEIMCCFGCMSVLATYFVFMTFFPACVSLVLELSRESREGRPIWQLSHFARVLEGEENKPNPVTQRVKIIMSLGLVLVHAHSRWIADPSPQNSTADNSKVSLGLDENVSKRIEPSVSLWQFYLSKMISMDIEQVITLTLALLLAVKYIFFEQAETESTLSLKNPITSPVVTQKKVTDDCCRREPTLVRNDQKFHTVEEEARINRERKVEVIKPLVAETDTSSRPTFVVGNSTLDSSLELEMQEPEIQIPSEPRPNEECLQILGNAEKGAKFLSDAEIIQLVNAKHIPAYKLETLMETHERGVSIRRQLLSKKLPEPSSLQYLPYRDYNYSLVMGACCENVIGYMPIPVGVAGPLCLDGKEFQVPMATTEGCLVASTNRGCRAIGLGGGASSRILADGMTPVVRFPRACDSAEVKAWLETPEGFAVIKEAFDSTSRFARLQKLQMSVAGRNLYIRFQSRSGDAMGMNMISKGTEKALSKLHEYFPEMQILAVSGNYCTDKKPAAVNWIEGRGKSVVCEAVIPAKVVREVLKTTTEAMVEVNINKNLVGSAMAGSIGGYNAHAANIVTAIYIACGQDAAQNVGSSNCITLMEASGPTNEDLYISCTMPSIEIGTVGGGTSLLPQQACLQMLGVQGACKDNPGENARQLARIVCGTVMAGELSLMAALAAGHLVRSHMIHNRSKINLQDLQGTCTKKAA
Text: (§1) All assays conducted on chicken or swine serum were done following the protocols described in A. A. Qureshi et al., "Lowering Of Serum Cholesterol In Hypercholesterolemic Humans By Tocotrienols" (Palmvitee), Am. J. Clin. Nutr., 53, pp. 1021S-26S (1991). All enzymatic assays were done following the protocols described in A. A. Qureshi et al., "Effects of Cereals and Culture Filtrate of Trichoderma viride on Lipid Metabolism of Swine", Lipids, 17, pp. 924 (1982). Plasma insulin, glucagon and TNF levels were measured using radioinnumoassay kits from Ventrex Laboratories, Inc. (Portland, Me.), ICN Biomedicals, Inc. (Costa Mesa, Calif.) and Genzyme Corp. (Cambridge, Mass.), respectively.
We next measured the effects of various tocotrienols from rice bran on HMG-CoA reductase and cholesterol 7α-hydroxylase in hypercholesterolemic swine. Since pigs are very similar to humans in their cholesterol metabolism, they provide a useful model from which to study hypercholesterolemia and related diseases. […] The serum cholesterol concentration in these swine is typically above 300-500 mg/dl, as compared to 120-160 mg/dl in normal adult swine. As a result, the pigs develop complicated atherosclerotic plaques that closely resemble advanced atherosclerotic lesions found in humans.
(§2) Each group of three 5-month old swine was administered either a control diet or a control diet supplemented with 50 ppm of TRF or 50 ppm of an individual tocotrienol. The samples were prepared as described in Example 11. After a 12 hour fast, serum and plasma samples were taken a 0 hrs, 21 days and 42 days from the start of the feeding period. After taking serum and plasma samples from the pigs at the end of the 42 day period, all of the swine were fasted for a total of 40 hours, followed by a 48 hour refeeding period. One swine from each group was sacrificed at that time and the liver, intestine, lung, heart, loin muscle, adipose tissue and ham muscle were removed.

[1] = test system: hypercholesterolemic swine; experiment: Plasma thromboxane B2 and platelet factor 4 in hypercholesterolemic swine; assay type: in vivo; parameters: Platelet Factor 4: unit not given here; settings: control diet + 50 ppm, 42 days
Text: as §1, §2
This example was conducted to measure the serum levels of apolipoprotein (a)1, apolipoprotein B, triglycerides, glucose, insulin and glucagon and the plasma levels of thromboxane B2 and platelet factor 4 in the swine described in Example 15.

chickens = experiment: Antibody titers to sheep red blood cells in chickens; assay type: in vivo, chicken; settings: 4 weeks; for IgG antibody titers in serum / IgM antibody titers in serum / Total Ab titers in serum: control diet + 50 ppm, sheep red blood cells i.p.
Protocol: The model for this study was 6-week old female white leghorn chickens. Each group of 12 chickens was fed an unsupplemented chicken diet or a control diet supplemented with 50 ppm of a tocotrienol or 100 ppm of a commercially available hypercholesterolemic agent (Geraniol or Lovastatin). […] The chickens were fed over a period of 4 weeks, then the blood was drawn. The antibody response was determined by injecting the chickens i.p. with 0.5 ml of a 5% suspension of sheep red blood cells (RBCs) in PBS (v/v) which were previously washed three times. […] Relative IgG levels were determined by using 2-mercaptoethanol preincubation for 30 min. The relative IgM levels were calculated by subtracting the IgG antibody levels from total antibody levels. All antibody levels are expressed as the log base 2 of the highest titer that was needed to hemagglutinate an equal volume of 0.5% RBC suspension.

Row | SMILES | HMG-CoA REDUCTASE (HMG-CoA reductase; 21 days) | HMG-CoA REDUCTASE, percentage of 0-time value (HMG-CoA reductase; 21 days) | HMG-CoA REDUCTASE (HMG-CoA reductase; 42 days) | HMG-CoA REDUCTASE, Percentage of Control Activity (HMG-CoA reductase; 42 days) | HMG-CoA REDUCTASE, percentage of 0-time value (HMG-CoA reductase; 42 days) | Platelet Factor 4, percentage of control [1] | Thromboxane B2 [1] | Thromboxane B2, percentage of control [1] | IgG antibody titers in serum (chickens) | IgM antibody titers in serum (chickens) | Total Ab titers in serum (chickens) | Platelet Factor 4 [1] | total antibody titer and IgM titer compared to the control (in words) (chickens; 50 ppm in diet)
1 | CC(C)=CCC/C(C)=C/CC/C(C)=C/CCC1(C)CCc2cc(O)ccc2O1 (centres unmarked) [P21, 3,4-dihydro-2-methyl-2-(4,8,12-trimethyltrideca-3' (E),7'(E),11'-trienyl)-2H-1-benzopyran-6-ol] | 304.23 pg/min/mg of microsomes | 89.38% | 275.75 pg/min/mg of microsomes | 73.59% | 81.02% | 82.59% | 60.48 pg/100 ml | 87.66% | 1.50 ± 1.18 Log 2 | 7.17 Log 2 | 8.67 ± 1.92 Log 2 | – | –
2 | CC(C)=CCC/C(C)=C/CC/C(C)=C/CCC1CCc2cc(O)ccc2O1 (centres unmarked) [P25, 3,4-dihydro-2-(4,8,12-trimethyltrideca-3'(E),7'(E),11'-trienyl)-2H-1-benzopyran-6-ol] | 307.27 pg/min/mg of microsomes | 87.58% | 269.43 pg/min/mg of microsomes | 69.75% | 76.79% | 79.36% | 57.03 pg/100 ml | 83.02% | 2.43 ± 1.40 Log 2 | 8.92 Log 2 | 10.30 ± 1.16 Log 2 | 19.15 | increased
3 | CC(C)=CCC/C(C)=C/CC/C(C)=C/CCC1(C)CCc2cc(O)c(C)c(C)c2O1 (centres unmarked) [γ-T3, γ-tocotrienol, reference compound] | 300.72 pg/min/mg of microsomes | 86.19% | 280.88 pg/min/mg of microsomes | 73.31% | 80.71% | 85.28% | 62.54 pg/100 ml | 92.25% | 1.28 Log 2 | 5.83 ± 1.53 Log 2 | 6.60 ± 1.51 Log 2 | – | –
